In this assay the target is TRPA1 (Homo sapiens, UniProt O75762). The assay can be described thus: Determination of TRPA1 activity in vitro (TRPA1 antagonism in vitro). It counts as cell-based. The conditions noted are these: procedure of Wei et al., Anesthesiology 111 (2009) 147-154.
Sequence of TRPA1 (O75762 whole entry): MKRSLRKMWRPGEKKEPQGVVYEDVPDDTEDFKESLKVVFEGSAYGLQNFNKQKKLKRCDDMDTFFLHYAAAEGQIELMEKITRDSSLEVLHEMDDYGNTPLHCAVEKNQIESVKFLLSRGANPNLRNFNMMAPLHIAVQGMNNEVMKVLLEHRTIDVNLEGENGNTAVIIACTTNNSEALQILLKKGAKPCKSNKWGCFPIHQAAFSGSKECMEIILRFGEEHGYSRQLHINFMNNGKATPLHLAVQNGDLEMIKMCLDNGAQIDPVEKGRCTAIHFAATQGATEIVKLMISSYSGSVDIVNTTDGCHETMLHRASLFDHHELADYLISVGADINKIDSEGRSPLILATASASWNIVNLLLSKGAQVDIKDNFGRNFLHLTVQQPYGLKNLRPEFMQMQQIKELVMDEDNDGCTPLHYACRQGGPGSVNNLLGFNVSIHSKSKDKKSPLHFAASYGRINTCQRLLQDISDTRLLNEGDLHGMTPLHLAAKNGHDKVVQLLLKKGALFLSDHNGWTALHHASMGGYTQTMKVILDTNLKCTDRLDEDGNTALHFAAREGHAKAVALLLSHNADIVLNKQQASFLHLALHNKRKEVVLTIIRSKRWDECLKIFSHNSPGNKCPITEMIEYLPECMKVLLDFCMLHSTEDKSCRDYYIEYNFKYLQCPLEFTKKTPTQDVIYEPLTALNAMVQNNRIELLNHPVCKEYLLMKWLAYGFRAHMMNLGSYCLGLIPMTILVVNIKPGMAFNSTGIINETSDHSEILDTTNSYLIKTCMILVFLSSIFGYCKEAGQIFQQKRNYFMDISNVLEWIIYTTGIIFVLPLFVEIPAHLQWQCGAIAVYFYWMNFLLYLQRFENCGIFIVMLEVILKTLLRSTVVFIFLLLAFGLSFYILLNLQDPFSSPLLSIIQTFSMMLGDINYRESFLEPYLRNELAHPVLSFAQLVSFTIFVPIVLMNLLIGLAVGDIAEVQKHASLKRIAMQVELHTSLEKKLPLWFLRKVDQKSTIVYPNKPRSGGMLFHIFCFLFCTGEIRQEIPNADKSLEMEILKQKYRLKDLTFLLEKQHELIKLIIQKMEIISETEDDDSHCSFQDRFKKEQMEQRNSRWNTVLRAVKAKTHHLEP
Consider “5-Bromo-2-(ethylamino)-N-(2-methylbut-3-yn-2-yl)nicotinanilide [Example 153]”, for which the 50% inhibitory concentration (IC50) (as a rule, the point on the concentration scale where inhibition reaches its midpoint) turned out to be 10400 nM.

“5-Chloro-N-(2-methylbut-3-yn-yl)-2-(2,2,2-trifluoroethylamino)-nicotinamide [Example 34]” showed a half-inhibitory concentration (IC50) of 500 nM.

The compound `C#CC(C)(C)NC(=O)c1cc(F)cnc1NCCC(F)(F)F` [Example 1, 5-Fluoro-N-(2-methylbut-3-yn-2-yl)-2-(3,3,3-trifluoropropylamino)-nicotinamide] gave a concentration for half-maximal inhibition (IC50) of 1900 nM.

Regarding `C#CC(C)(C)NC(=O)c1cc(C(F)(F)F)cnc1NCCC(F)(F)F` [Example 2, N-(2-Methylbut-3-yn-2-yl)-5-(trifluoromethyl)-2-(3,3,3-trifluoropropylamino) nicotinamide], the concentration for half-maximal inhibition (IC50) amounted to 300 nM.

On to `C#CC(C)(C)NC(=O)c1cc(Cl)ccc1NCCC` [Example 3, 5-Chloro-N-(2-methylbut-3-yn-2-ylbut-3)-2-(propylamino)benzamide], for which the 50% inhibitory concentration (IC50) worked out at 1100 nM.

In turn, `C#CC(C)(C)NC(=O)c1cc(Cl)ccc1NC(C)C` [Example 4, 5-Chloro-2-(isopropylamino)-N-(2-methylbut-3-yn-2-yl)benzamide] registered an IC50 of 4700 nM.

The compound `C#CC(C)(C)NC(=O)c1cc(Cl)ccc1NCC(F)F` [Example 5, 5-Chloro-2-(2,2-difluoroethylamino)-N-(2-methylbut-3-yn-2-yl)benzamide] showed a concentration for half-maximal inhibition (IC50) of 5100 nM.

Consider `C#CC(C)(C)NC(=O)c1cc2c(cc1NCCC(F)(F)F)OCCO2` [Example 6, N-(2-Methylbut-3-yn-2-yl)-7-(3,3,3-trifluoropropylamino)-2,3-dihydrobenzo[b][1,4]dioxine-6-carboxamide], for which half-maximal inhibition (IC50) required 11800 nM.

Compound `C#CC(C)(C)NC(=O)c1cc2c(cc1NCC(C)C)OCO2` [Example 7, 6-(Isobutylamino)-N-(2-methylbut-3-yn-2-yl)benzo[d][1,3]dioxole-5-carboxamide] yielded a concentration for half-maximal inhibition (IC50) of 2900 nM.

Turning to `C#CC(C)(C)NC(=O)c1cc2c(cc1NCC(C)C)OCCCO2` [Example 8, 8-(Isobutylamino)-N-(2-methylbut-3 yn-2-yl)-3,4-dihydro-2H-benzo[b][1,4]dioxepine-7-carboxamide], the half-inhibitory concentration (IC50) came out at 13000 nM.

As to `C#CC(C)(C)NC(=O)c1cc2c(cc1NCC(C)C)OCCO2` [Example 9, 7-(Isobutylamino)-N-(2-methylbut-3-yn-2-yl)-2,3-dihydrobenzo[b][1,4]dioxine-6-carboxamide], 11200 nM corresponded to half-maximal inhibition (IC50).

The compound `C#CC(C)(C)NC(=O)c1cc(C(F)(F)F)ccc1NCC(F)F` [Example 10, 2-(2,2-Difluoroethylamino)-N-(2-methylbut-3yn-2-yl)-5-(trifluoromethyl)benzamide] showed an IC50 of 1500 nM.

`C#CC(C)(C)NC(=O)c1cnc(C(F)(F)F)nc1NCCC(F)(F)F` [Example 11, N-(2-Methylbut-3-yn-2-yl)-2-(trifluoromethyl)-4-(3,3,3-trifluoropropylamino)pyrimidine-5-carboxamide]: the 50% inhibitory concentration (IC50) was determined as 3700 nM.

For the compound `C#CC(C)(C)NC(=O)c1cc(C(F)(F)F)ccc1NCCC(F)(F)F` [Example 12, N-(2-Methylbut-3-yn-2-yl)-5-(trifluoromethyl)-2-(3,33-trifluoropropylamino) benzamide], half-maximal inhibition (IC50) was put at 500 nM.

In turn, `C#CC(C)(C)NC(=O)c1ccc(Cl)cc1NCCC` [Example 13, 4-Chloro-N-(2-methylbut-3-yn-2-yl)-2-(propylamino)benzamide] came in with an IC50 of 800 nM.

The compound `C#CC(C)(C)NC(=O)c1cc(Cl)ccc1NCC(F)(F)F` [Example 14, 5-Chloro-N-(2-methylbut-3-yn-2-yl)-2-(2,2,2-trifluoroethylamino)-benzamide] yielded an IC50 of 1200 nM.

As to `C#CC(C)(C)NC(=O)c1cccc(F)c1NCCC(F)(F)F` [Example 15, 3-Fluoro-N-(2-methylbut-3-yn-2-yl)-2-(3,3,3-trifluoropropylamino)-benzamide], half-maximal inhibition (IC50) required 3000 nM.

For `C#CC(C)(C)NC(=O)c1cccc(F)c1NCCC` [Example 16, 3-Fluoro-N-(2-methylbut-3-yn-2-yl)-2-(propylamino)benzamide], the IC50 turned out to be 10800 nM.

`C#CC(C)(C)NC(=O)c1cc(F)c(F)cc1NC1CCC1` [Example 17, 2-(Cyclobutylamino)-4,5-difluoro-N-(2-methylbut-3-yn-2-yl)benzamide] had an IC50 of 1200 nM.

Compound `C#CC(C)(C)NC(=O)c1cc(C(F)(F)F)ccc1NCC(F)(F)C(F)(F)F` [Example 18, N-(2-Methylbut-3-yn-2-yl)-2-(2,2,3,3,3-pentafluoropropylamino)-5-(trifluoromethyl)benzamide] yielded an IC50 of 300 nM.

With `C#CC(C)(C)NC(=O)c1ccccc1NCC(F)(F)C(F)(F)F` [Example 19, N-(2-Methylbut-3-yn-2-yl)-2-(2,2,3,3,3-pentafluoropropylamino)-benzamide], the midpoint of inhibition, the IC50, lay at 500 nM.

With `C#CC(C)(CC)NC(=O)c1cc(F)cnc1NCC(F)F` (stereo not drawn) [Example 20, 2-(2,2-Difluoroethylamino)-5-fluoro-N-(3-methylpent-1-yn-3-yl)nicotinamide], half-maximal inhibition (IC50) was put at 1400 nM.

Take `C#CC(C)(C)NC(=O)c1cccc(F)c1NC1CCC1` [Example 21, 2-(Cyclobutylamino)-3-fluoro-N-(2-methylbut-3-yin-2-yl)benzamide]: the half-maximal inhibitory concentration (IC50) worked out at 5200 nM.

As for `C#CC(C)(C)NC(=O)c1cc(F)ccc1NCC(F)(F)F` [Example 22, 5-Fluoro-N-(2-methylbut-3-yn-2-yl)-2-(2,2,2-trifluoroethylamino)-benzamide], 7200 nM corresponded to half-maximal inhibition (IC50).

Consider `C#CC(C)(C)NC(=O)c1cc(C(F)(F)F)ccc1NC1CCC1` [Example 23, 2-(Cyclobutylamino)-N-(2-methylbut-3-yn-2-yl)-5-(trifluoromethyl)-benzamide], for which the IC50 is 100 nM.

As for `C#CC(C)(C)NC(=O)c1cc(F)ccc1NC1CCC1` [Example 24, 2-(Cyclobutylamino)-5-fluoro-N-(2-methylbut-3-yn-2-yl)benzamide], inhibition was half-maximal at 1300 nM (IC50).

In the case of `C#CC(C)(C)NC(=O)c1cc(F)cnc1NC1CCC1` [Example 25, 2-(Cyclobutylamino)-5-fluoro-N-(2-methylbut-3-yn-2-yl)nicotinamide], the IC50 came to 3000 nM.

Consider `C#CC(C)(C)NC(=O)c1cc(Cl)cnc1NC(C)C` [Example 26, 5-Chloro-2-(isopropylamino)-N-(2-methylbut-3-yn-2-yl)-nicotinamide], for which the half-inhibitory concentration (IC50) turned out to be 3300 nM.

`C#CC(C)(C)NC(=O)c1cc(Cl)cnc1NC1CCC1` [Example 27, 5-Chloro-2-(cyclobutylamino)-N-(2-methylbut-3-yn-2-yl)nicotinamide]: half-maximal inhibition (IC50) was put at 700 nM.

Compound `C#CC(C)(C)NC(=O)c1cc(C(F)(F)F)cnc1NC(C)C` [Example 28, 2-(Isopropylamino)-N-(2-methylbut-3-yn-2-yl)-5-(trifluoromethyl)-nicotinamide] had a concentration for half-maximal inhibition (IC50) of 1200 nM.

The compound `C#CC(C)(C)NC(=O)c1cc(F)cnc1NCC(F)(F)C(F)(F)F` [Example 29, 5-Fluoro-N-(2-methylbut-3-yn-2-yl)-2-(2,2,3,3-pentafluoropropyl-amino)nicotinamide] yielded a half-maximal inhibitory concentration (IC50) of 400 nM.

`C#CC(C)(C)NC(=O)c1cc(C)ccc1NCC(F)(F)C(F)(F)F` [Example 30, 5-Methyl-N-(2-methylbut-3-yn-2-yl)-2-(2,2,3,3,3-pentafluoropropyl-amino)benzamide] displayed a concentration for half-maximal inhibition (IC50) of 300 nM.

In turn, `C#CC(C)(C)NC(=O)c1cc(F)ccc1NCC(F)(F)C(F)(F)F` [Example 31, 5-Fluoro-N-(2-methylbut-3-yn-2-yl)-2-(2,2,3,3,3-pentafluoropropylamino) benzamide] displayed an IC50 of 2600 nM.

`C#CC(C)(C)NC(=O)c1cc(Cl)cnc1NCC(F)F` [Example 32, 5-Chloro-2-(2,2-difluoroethylamino)-N-(2-methylbut-3-yn-2-yl)nicotinamide] had an IC50 of 3800 nM.

The compound `C#CC(C)(C)NC(=O)c1cc(F)cnc1NCC(F)(F)F` [Example 33, 5-Fluoro-N-(2-methylbut-3-yn-2-yl)-2-(2,2,2-trifluoroethylamino)-nicotinamide] had a half-maximal inhibitory concentration (IC50) of 3000 nM.

The compound `C#CC(C)(C)NC(=O)c1cc(C(F)(F)F)cnc1NCC(F)(F)F` [Example 35, N-(2-Methylbut-3-yn-2-yl)-2-(2,2,2-trifluoroethylamino)-5-(trifluoromethyl)nicotinamide] gave an IC50 of 500 nM.

Take `C#CC(C)(C)NC(=O)c1cc(C#N)ccc1NC1CCC1` [Example 36, 5-Cyano-2-(cyclobutylamino)-N-(2-methylbut-3-yn-2-yl)benzamide]: the half-inhibitory concentration (IC50) worked out at 4200 nM.

`C#CC(C)(C)NC(=O)c1ccc(C#N)cc1NC1CCC1` [Example 37, 4-Cyano-2-(cydclobutylamino)-N-(2-methylbut-3-yn-2-yl)benzamide]: half-maximal inhibition (IC50) was put at 3200 nM.

Compound `C#CC(C)(C)NC(=O)c1cc(F)c(F)cc1NCC(F)(F)F` [Example 38, 4,5-Difluoro-N-(2-methylbut-3-yn-2-yl)-2-(2,2,2-trifluoroethylamino)-benzamide] displayed a half-inhibitory concentration (IC50) of 2500 nM.

The compound `C#CC(C)(C)NC(=O)c1cc(C(F)(F)F)ccc1NCC(F)(F)F` [Example 39, N-(2-Methylbut-3-yn-2-yl)-2-(2,2,2-trifluoroethylamino)-5-(trifluoromethyl) benzamide] had a 50% inhibitory concentration (IC50) of 600 nM.

In turn, `C#CC(C)(C)NC(=O)c1cc(C)ccc1NCC(F)(F)F` [Example 40, 5-Methyl-N-(2-methylbut-3-yn-2-yl)-2-(2,2,2-trifluoroethylamino)-benzamide] registered a concentration for half-maximal inhibition (IC50) of 2900 nM.

In turn, `C#CC(C)(C)NC(=O)c1cc(Cl)cnc1NCCC(F)(F)F` [Example 41, 5-Chloro-N-(2-methylbut-3yn-2-yl)-2-(3,3,3-trifluoropropylamino)-nicotinamide] gave a concentration for half-maximal inhibition (IC50) of 500 nM.

As for `C#CC(C)(C)NC(=O)c1cc(F)c(F)cc1NCCCC` [Example 42, 2-(Butylamino)-4,5-difluoro-N-(2-methylbut-3-yn-2-yl)benzamide], half-maximal inhibition (IC50) was put at 500 nM.

Consider `C#CC(CC)(CC)NC(=O)c1cc(Br)ccc1NCCOC` [Example 43, 5-Bromo-(3-ethylpent-1-yn-3yl)-2-(2-methoxyethylamino)-benzamide], for which it took 1000 nM to reach half-maximal inhibition (IC50).

The compound `C#CC(CC)(CC)NC(=O)c1cc(Cl)ccc1NCCOC` [Example 44, 5-Chloro-N-(3-ethylpent-1-yn-3yl)-2-(2-methoxyethylamino)-benzamide] registered an IC50 of 1300 nM.
